Here are results for four molecules from article PMC4386948, “Artemether-lumefantrine co-administration with antiretrovirals: population pharmacokinetics and dosing implications” (British Journal of Clinical Pharmacology, 2014).

Data set [1] can be described thus: Population pharmacokinetics of artemether/dihydroartemisinin alone and with efavirenz, nevirapine or lopinavir/ritonavir (non-linear mixed effects modelling of plasma concentrations). Format: in vivo, human. The conditions noted are these: for Vc/F, apparent volume of distribution of the central compartment, population estimate [RSE %] / CL/F, apparent elimination clearance, population estimate [RSE %]: HIV-infected adults, oral artemether-lumefantrine, plasma; for CL/F, apparent elimination clearance, population estimate [RSE %]: parent fully converted to metabolite; for exposure: nevirapine or lopinavir/ritonavir (all three antiretroviral drugs); for LOPCL/F, effect on elimination clearance by concomitant treatment with lopinavir/ritonavir: concomitant lopinavir/ritonavir 400/100 mg, positive = increase. An excerpt: Study 1 was a parallel group study in HIV-infected patients. Inclusion criteria were age >18 years, informed written consent and a confirmed HIV diagnosis. Exclusion criteria were anaemia (haemoglobin levels below 8 g dl^-1), viral loads above 400 counts ml^-1, malaria parasitaemia, abnormal liver or renal function, pregnancy, the use of substances which inhibit or induce CYP enzymes or P-glycoprotein, use of herbal medicines, prolonged QT interval, or any intercurrent illness. Ethics approval was received from the Uganda National HIV/AIDS Research Committee (ARC 056) and the Uganda National Council of Science and Technology (HS 195) and the study was registered with http://ClinicalTrials.gov (NCT 00619944). Study 2 was a three period, crossover study in HIV-infected patients. Inclusion and exclusion criteria were the same as for study 1 (i.e. age >18 years, informed written consent and a confirmed HIV diagnosis) except that there were no restrictions based on viral load, and patients with hypersensitivity to artemisinins, lumefantrine or halofantrine or any history of cardiac disease were excluded from the study. Ethics approval was received from the Uganda National HIV/AIDS Research Committee (ARC 059) and from the Uganda National Council of Science and Technology (HS 196). The study was registered at http://ClinicalTrials.gov (NCT00620438). Patients in the first arm were treated with 400/100 mg of lopinavir/ritonavir (Aluvia®, Abbott Laboratories, Abbott Park, Illinois, USA) and two nucleoside reverse transcriptase inhibitors (zidovudine and didanosine or tenofovir and emtricitabine, regional non-controlled procurement). The drugs were taken twice daily for at least 1 month before the start of the study. Patients in the second arm had not yet started their HIV therapy. At the initiation of the study all patients received a single dose of 80 mg artemether and 480 mg lumefantrine (four tablets) (Coartem®, Novartis Pharma AG, Basel, Switzerland; Batch number: F0660). Venous plasma samples were drawn at 1, 2, 4, 6, 8, 12, 24, 48 and 72 h post-dose. At the start of the study, all patients received a standard treatment of artemether and lumefantrine (80/480 mg twice daily for 3 days; Coartem®). Plasma samples were collected after the last dose at 1, 2, 4, 8, 12, 24, 48, 72, 96 and 120 h post-dosing. […] Patients received HIV treatment alone for 1 month and then were given a standard six dose treatment of artemether and lumefantrine concomitantly. Plasma samples were again collected after the last artemether-lumefantrine dose. Artemether/dihydroartemisinin and lumefantrine were quantified in plasma samples according to previously published methods. Artemether and dihydroartemisinin were measured using solid phase extraction and liquid chromatography coupled with tandem mass spectrometric detection. The total coefficient of variation (%CV) was less than 6% and the lower limit of quantification was set to 1.4 ng ml^-1. Lumefantrine was measured using solid phase extraction followed by liquid chromatography with ultraviolet detection. The total coefficient of variation was below 6% and the lower limit of quantification was set to 25 ng ml^-1. Modelling and simulations were performed in NONMEM v7.12 (Icon Development Solutions, Ellicott City, Maryland, USA). Model discrimination was based on the objective function value (OFV) which is proportional to -2 times the log-likelihood of the data. […]2.6.0 was used to document the modelling process. R v2.14.2 (the R Foundation for Statistical Computing, Vienna, Austria) and the package Xpose v4.3.5 [43] was used to perform model diagnostics. Perl-speaks-NONMEM v3.5.3 was used for automation throughout the modelling process. Data below the limit of quantification were initially omitted or modelled as categorical data (M3-method), if necessary. […]

The conditions of data set [2]: cited from earlier work.
Data set [3] is described as follows: Population pharmacokinetics of lumefantrine/desbutyl-lumefantrine alone and with efavirenz, nevirapine or lopinavir/ritonavir (non-linear mixed effects modelling of plasma concentrations). The data set is classed as in vivo, human. The following applies: for CL/F, apparent elimination clearance, population estimate [RSE %]: parent fully converted to metabolite; for EFZCL/F, effect on elimination clearance by concomitant treatment with efavirenz: concomitant efavirenz 600 mg; for EFZCL/F, effect on elimination clearance by concomitant treatment with efavirenz / LOPCL/F, effect on elimination clearance by concomitant treatment with lopinavir/ritonavir: positive = increase; for LOPCL/F, effect on elimination clearance by concomitant treatment with lopinavir/ritonavir: concomitant lopinavir/ritonavir 400/100 mg. The source says: Study 1 was a parallel group study in HIV-infected patients. Inclusion criteria were age >18 years, informed written consent and a confirmed HIV diagnosis. Exclusion criteria were anaemia (haemoglobin levels below 8 g dl^–1), viral loads above 400 counts ml^−1, malaria parasitaemia, abnormal liver or renal function, pregnancy, the use of substances which inhibit or induce CYP enzymes or P-glycoprotein, use of herbal medicines, prolonged QT interval, or any intercurrent illness. Ethics approval was received from the Uganda National HIV/AIDS Research Committee (ARC 056) and the Uganda National Council of Science and Technology (HS 195) and the study was registered with http://ClinicalTrials.gov (NCT 00619944).
Study 2 was a three period, crossover study in HIV-infected patients. Inclusion and exclusion criteria were the same as for study 1 (i.e. age >18 years, informed written consent and a confirmed HIV diagnosis) except that there were no restrictions based on viral load, and patients with hypersensitivity to artemisinins, lumefantrine or halofantrine or any history of cardiac disease were excluded from the study. Ethics approval was received from the Uganda National HIV/AIDS Research Committee (ARC 059) and from the Uganda National Council of Science and Technology (HS 196). The study was registered at http://ClinicalTrials.gov (NCT00620438).
Patients in the first arm were treated with 400/100 mg of lopinavir/ritonavir (Aluvia®, Abbott Laboratories, Abbott Park, Illinois, USA) and two nucleoside reverse transcriptase inhibitors (zidovudine and didanosine or tenofovir and emtricitabine, regional non-controlled procurement). The drugs were taken twice daily for at least 1 month before the start of the study. Patients in the second arm had not yet started their HIV therapy. At the initiation of the study all patients received a single dose of 80 mg artemether and 480 mg lumefantrine (four tablets) (Coartem®, Novartis Pharma AG, Basel, Switzerland; Batch number: F0660). Venous plasma samples were drawn at 1, 2, 4, 6, 8, 12, 24, 48 and 72 h post-dose.
At the start of the study, all patients received a standard treatment of artemether and lumefantrine (80/480 mg twice daily for 3 days; Coartem®). Plasma samples were collected after the last dose at 1, 2, 4, 8, 12, 24, 48, 72, 96 and 120 h post-dosing. After 1 week of wash-out, patients started HIV treatment with either nevirapine (200 mg) or efavirenz (600 mg) combined with the nucleoside reverse transcriptase inhibitors zidovudine and lamivudine. Patients received HIV treatment alone for 1 month and then were given a standard six dose treatment of artemether and lumefantrine concomitantly. Plasma samples were again collected after the last artemether-lumefantrine dose.
Artemether/dihydroartemisinin and lumefantrine were quantified in plasma samples according to previously published methods. Artemether and dihydroartemisinin were measured using solid phase extraction and liquid chromatography coupled with tandem mass spectrometric detection. […] Lumefantrine was measured using solid phase extraction followed by liquid chromatography with ultraviolet detection.
Desbutyl-lumefantrine was measured using liquid chromatography (Model 1200 system, Agilent Technologies) coupled with tandem mass spectrometric detection (API5000 triple-quadrupole system, AB Sciex). Desbutyl-lumefantrine and its analogue internal standard (C28H28CL3NO [39]) were extracted from plasma samples (100 μl) by protein precipitation followed by phospholipid removal (Hybrid SPE-Precipitation 96-wellplate, 575656-U, Supelco).

The mark [4] stands for this setting: stated in methods, no reference given.
[5] abbreviates: HIV-infected adults, oral artemether-lumefantrine, plasma.
The mark [6] stands for this setting: concomitant lopinavir/ritonavir.

Like-named read-outs stand apart in the source and are kept apart here.

Regarding `C[C@H]1[C@@H](O)O[C@@H]2O[C@@]3(C)CC[C@H]4[C@H](C)CC[C@@H]1[C@@]24OO3` [dihydroartemisinin], in data set [1], the “Vc/F, apparent volume of distribution of the central compartment, population estimate [RSE %]” value (shortened to “Vc/F, apparent volume of distribution … [RSE %]”) is 14.9 [39.8] l; the “CL/F, apparent elimination clearance, population estimate [RSE %]” value (“CL/F … [RSE %]” for short) is 160 [4.93] l h^−1; the “LOPCL/F, effect on elimination clearance by concomitant treatment with lopinavir/ritonavir” value (“LOPCL/F, effect … with lopinavir/ritonavir” for short) was determined as 143%. Moreover, the exposure entry in data set [1] (concomitant efavirenz) was “decreased”. The “LOPCL/F, effect … with lopinavir/ritonavir” value in data set [1] (listed as Dihydroartemisinin) is 143 [19.7] %. Moreover, the “decrease of elimination clearance” value in data set [1] (concomitant nevirapine) is reported as 44%. In addition, the “NEVCL/F, effect on elimination clearance by concomitant treatment with nevirapine” value in data set [1] (concomitant nevirapine 200 mg) is −44.5 [14.5] %. Moreover, the half-life in data set [2] is 0.8 to 2.1 h. Further, in data set [2] (setting [4]), the terminal half-life is 1 to 2 h.
Turning to `CCCCN(CCCC)CC(O)c1cc(Cl)cc2c1-c1ccc(Cl)cc1/C2=C/c1ccc(Cl)cc1` (centres unmarked) [lumefantrine], in data set [3] (setting [5]), the “Q/F, inter-compartment clearance, population estimate [RSE %]” value was 2.86 [19.4] l h^−1; the “VP/F, apparent volume of distribution of the peripheral compartment, population estimate [RSE %]” value was 111 [9.14] l; the “Vc/F, apparent volume of distribution … [RSE %]” value is 68.9 [27.1] l; the “CL/F … [RSE %]” value is 4.77 [5.30] l h^−1. For the same molecule, in data set [3], the “EFZCL/F, effect on elimination clearance by concomitant treatment with efavirenz” value was 72.6% and the “LOPCL/F, effect … with lopinavir/ritonavir” value is −62.1 [8.48] %. In data set [3] (listed as Lumefantrine), the “EFZCL/F, effect on elimination clearance by concomitant treatment with efavirenz” value was 72.6 [17.2] %. In addition, in data set [3] (setting [6]), the “decrease of elimination clearance” value came out at 62%. Moreover, the “lowering of relative bioavailability” value in data set [3] (concomitant nevirapine) was determined as 25%. Besides, in data set [3] (one transit compartment), the “MTT, mean transit time of the absorption, population estimate [RSE %]” value was 6.27 [21.2] h. Also, in data set [2], the elimination half-life was 48 to 96 h; the “increase of exposure for a 100% dose increase (dose limited absorption, assumed in simulations)” value is listed as 70%; the “systemic exposure relative to its metabolite desbutyl-lumefantrine” value is 85- to 300 fold. In addition, the terminal half-life in data set [2] (setting [4]) was 79.2 h.
On to `CO[C@H]1O[C@@H]2O[C@@]3(C)CC[C@H]4[C@H](C)CC[C@@H]([C@H]1C)[C@@]24OO3` [artemether], for which, in data set [1], the “Vc/F, apparent volume of distribution … [RSE %]” value was 1090 [8.69] l; the “CL/F … [RSE %]” value is 317 [8.25] l h^−1; the “LOPCL/F, effect … with lopinavir/ritonavir” value is recorded as 32.8%. Also, in data set [1] (MMAX 1 FIX, MF50 62 FIX, reduced dataset), the “Hill coefficient in the maturation model (auto-induction)” value is 0.445 [43.9 ^‡]. Also, in data set [1] (concomitant efavirenz), the “decrease of relative bioavailability” value was determined as 71% and the exposure entry is listed as “decreased”. The “LOPCL/F, effect … with lopinavir/ritonavir” value in data set [1] (listed as Artemether) is 32.8 [21.5] %. In addition, the “decrease of relative bioavailability” value in data set [1] (concomitant nevirapine) came to 66%. The “MTT, mean transit time of the absorption phase, population estimate [RSE %]” value in data set [1] (three transit compartments) is 0.970 [6.58] h. Also, the terminal half-life in data set [2] was 1.5 to 2.0 h.
On to `CCCCNCC(O)c1cc(Cl)cc2c1-c1ccc(Cl)cc1/C2=C/c1ccc(Cl)cc1` (centres unmarked) [desbutyl-lumefantrine], for which the “CL/F … [RSE %]” value in data set [3] (setting [5]) is 489 [5.98] l h^−1. In addition, the exposure result in data set [3] (setting [6]) was “decreased exposure”; in data set [3] (concomitant nevirapine, due to lower bioavailability of lumefantrine) it was “decreased”. Also, the “LOPCL/F, effect … with lopinavir/ritonavir” value was 392% in data set [3] and 392 [17.6] % in data set [3] (listed as Desbutyl-Lumefantrine).

The half-life is how long it takes for the measured level to halve.
